Counter-ions that a name gives are not always drawn.

T1 sequence (P06756 31-889 limits assumed): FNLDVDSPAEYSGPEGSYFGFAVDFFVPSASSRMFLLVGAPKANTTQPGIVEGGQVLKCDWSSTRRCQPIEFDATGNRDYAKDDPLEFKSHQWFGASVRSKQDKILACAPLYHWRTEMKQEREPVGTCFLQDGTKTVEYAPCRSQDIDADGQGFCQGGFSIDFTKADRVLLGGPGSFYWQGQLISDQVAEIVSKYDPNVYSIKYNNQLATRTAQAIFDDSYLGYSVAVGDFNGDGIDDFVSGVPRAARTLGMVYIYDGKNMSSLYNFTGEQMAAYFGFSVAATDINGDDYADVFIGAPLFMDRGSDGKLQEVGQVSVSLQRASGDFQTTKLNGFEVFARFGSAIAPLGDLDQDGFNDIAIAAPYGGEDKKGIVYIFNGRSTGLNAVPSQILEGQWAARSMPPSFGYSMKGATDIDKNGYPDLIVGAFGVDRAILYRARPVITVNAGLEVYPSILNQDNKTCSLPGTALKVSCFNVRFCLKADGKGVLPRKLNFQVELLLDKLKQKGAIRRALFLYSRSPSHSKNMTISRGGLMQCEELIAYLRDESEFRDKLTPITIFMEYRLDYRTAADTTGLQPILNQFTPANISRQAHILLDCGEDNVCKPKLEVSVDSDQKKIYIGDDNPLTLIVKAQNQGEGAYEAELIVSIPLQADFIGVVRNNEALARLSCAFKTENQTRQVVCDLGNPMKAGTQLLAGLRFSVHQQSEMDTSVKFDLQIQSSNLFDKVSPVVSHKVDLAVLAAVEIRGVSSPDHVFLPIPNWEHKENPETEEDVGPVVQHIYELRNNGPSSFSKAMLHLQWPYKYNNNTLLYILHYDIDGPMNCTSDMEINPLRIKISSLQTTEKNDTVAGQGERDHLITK
T1 sequence (P06756 891-1048 partner limits assumed): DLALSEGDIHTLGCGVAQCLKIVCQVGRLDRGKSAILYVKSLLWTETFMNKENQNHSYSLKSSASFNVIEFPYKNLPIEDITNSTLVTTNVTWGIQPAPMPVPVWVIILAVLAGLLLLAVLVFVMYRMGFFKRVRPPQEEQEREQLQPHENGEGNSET
T1 sequence (P05106 27-788): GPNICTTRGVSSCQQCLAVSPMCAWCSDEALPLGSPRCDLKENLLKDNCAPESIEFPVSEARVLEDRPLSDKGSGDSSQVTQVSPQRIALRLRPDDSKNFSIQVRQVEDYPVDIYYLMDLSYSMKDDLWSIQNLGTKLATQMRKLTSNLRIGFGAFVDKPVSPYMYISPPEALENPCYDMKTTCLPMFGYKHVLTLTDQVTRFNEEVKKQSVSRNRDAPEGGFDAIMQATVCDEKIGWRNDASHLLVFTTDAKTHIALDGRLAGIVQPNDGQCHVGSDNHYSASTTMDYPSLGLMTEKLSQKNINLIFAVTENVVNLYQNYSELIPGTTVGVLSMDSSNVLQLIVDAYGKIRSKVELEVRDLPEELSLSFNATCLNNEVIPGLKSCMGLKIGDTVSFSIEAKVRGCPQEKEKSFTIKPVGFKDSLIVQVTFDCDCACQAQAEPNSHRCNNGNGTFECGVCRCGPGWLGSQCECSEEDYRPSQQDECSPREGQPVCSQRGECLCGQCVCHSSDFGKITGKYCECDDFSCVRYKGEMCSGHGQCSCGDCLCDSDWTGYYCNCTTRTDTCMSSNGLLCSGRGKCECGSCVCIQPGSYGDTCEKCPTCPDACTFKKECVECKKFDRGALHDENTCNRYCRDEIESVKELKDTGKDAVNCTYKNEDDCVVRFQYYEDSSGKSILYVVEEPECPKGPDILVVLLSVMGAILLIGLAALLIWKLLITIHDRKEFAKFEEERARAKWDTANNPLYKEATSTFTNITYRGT

The target of one assay is αvβ3 receptor (Homo sapiens, UniProt P05106+P06756).
Sequence of αvβ3 receptor (P06756 31-889 limits assumed): as the sequence (P06756 31-889 limits assumed) above
Sequence of αvβ3 receptor (P06756 891-1048 partner limits assumed): as the sequence (P06756 891-1048 partner limits assumed) above
Sequence of αvβ3 receptor (P05106 27-788): as the sequence (P05106 27-788) above
Experiment: not given
The settings on record: disclosed in WO98/00395; cited from earlier work.
In general, IC50 refers to the concentration that inhibits the measured activity by half. In the case of `CC1(C)C2CCC1(CS(=O)(=O)NC(Cc1ccc(OCCCC(=O)NC(=N)N)cc1)C(=O)O)C(=O)C2` (stereo not shown) [(I)], the IC50 is 0.13 nM.

The next assay addresses T1, αvβ3 from human A375 cells (Homo sapiens, UniProt P05106+P06756).
T1 construct: αvβ3 from human A375 cells was purified; endogenous in cells; host or cells: human A375 cells; receptor purified from the cells and used detergent-solubilised
The experiment in a line: αvβ3 echistatin SPA binding assay. The following applies: purified αvβ3, labelled echistatin, WGA SPA beads. How it is done: αvβ3 from human A375 cells was purified analogously to a procedure which was described by Wong et al. (Molecular Pharmacology, 50, 529-537 (1996)). 10 μl of αvβ3 (5 ng) in TBS pH 7.6, 2 mM CaCl2, 1 mM MgCl2, 1% n-octyl glucopyranoside (Sigma); 10 μl of test substance in TBS pH 7.6, 0.1% DMSO and 45 μl of TBS pH 7.6, 2 mM CaCl2, 1 mM MgCl2, 1 mM MnCl2 were in each case incubated at room temperature for 1 h. 25 μl of WGA SPA beads (Amersham, 4 mg/ml) and 10 μl of echistatin (0.1 μCi, Amersham, chloramine T-labelled) were then added in each case. After 16 hours at room temperature, the samples were measured in a scintillation measuring apparatus (Wallac 1450).
Molecule `CCC(C(=O)NC(CC(=O)O)c1cccc(NS(=O)(=O)c2cccc(NC(=N)N)c2)c1)c1ccccc1` (mixture of isomers) [Example 7, 3-(3-[3-Guanidino-benzenesulphonylamino]-phenyl)-3-(2-phenylbutyrylamino)-propionic acid] displayed an IC50 of 115 nM.
The molecule `N=C(N)Nc1cccc(S(=O)(=O)Nc2cccc(C(CC(=O)O)NS(=O)(=O)c3ccccc3)c2)c1` (stereo not shown) [Example 1, 3-Benzenesulphonylamino-3-[3-(3-guanidino-benzenesulphonylamino)-phenyl]-3-propionic acid, trifluoroacetic acid salt] had an IC50 of 19 nM.
The same measure, in the same setting: for `N=C(N)Nc1cccc(C(=O)Nc2cccc(C(CC(=O)O)NS(=O)(=O)c3ccccc3)c2)c1` (stereo not shown) [Example 2, 3-Benzenesulphonylamino-3-[3-(3-guanidino-benzoylamino)-phenyl]-propionic acid, trifluoroacetic acid salt] the value was 390 nM; for `Cc1cc(C)c(CC(=O)NC(CC(=O)O)c2cccc(NS(=O)(=O)c3cccc(NC(=N)N)c3)c2)c(C)c1` (stereo not shown) [Example 3, 3-(3-[3-Guanidinobenzenesulphonylamino]-phenyl)-3-(2,4,6-trimethylphenylacetylamino)-propionic acid, trfiluoroacetic acid salt], 153 nM.
Still for that read-out and setting: for `N=C(N)Nc1cccc(S(=O)(=O)Nc2cccc(C(CC(=O)O)NC(=O)c3ccccc3)c2)c1` (stereo not shown) [Example 4, 3-Benzoylamino-3-[3-(3-guanidino-benzenesulphonylamino)-phenyl]-propionic acid] the value was 12.8 nM.
Still for that read-out and setting: for `N=C(N)Nc1cccc(S(=O)(=O)Nc2cccc(C(CC(=O)O)NC(=O)Cc3ccc(Cl)cc3Cl)c2)c1` (stereo not shown) [Example 5] the value was 72.4 nM; for `N=C(N)Nc1cccc(S(=O)(=O)Nc2cccc(C(CC(=O)O)NC(=O)CCc3ccccc3)c2)c1` (stereo not shown) [Example 6, 3-(3-[3-Guanidino-benzenesulphonylamino]-phenyl)-3-phenylpropionylamino-propionic acid], 36.2 nM.
As for `N=C(N)Nc1cccc(COc2cccc(C(CC(=O)O)NS(=O)(=O)c3ccccc3)c2)c1` (stereo not shown) [Example 8, 3-Benzenesulphonylamino-3-[3-(3-guanidino-benzyloxy)-phenyl]-propionic acid], the IC50 worked out at 33 nM.
Still for that read-out and setting: for `O=C(O)CC(NS(=O)(=O)c1ccccc1)c1cccc(NS(=O)(=O)c2cccc(NC3=NCCN3)c2)c1` (stereo not shown) [Example 9] the value was 0.295 nM.

(Values after patent US6589972B2, “β-phenylalanine derivatives as integrin antagonists” (Bayer Aktiengesellschaft, priority 1999, dated 2003).)
